Measurements from PMC3689833, “Neurochemical Changes in the Mouse Hippocampus Underlying the Antidepressant Effect of Genetic Deletion of P2X7 Receptors” (PLoS ONE, 2013).

Experiments:
[1] = system: P2rx7+/+ and P2rx7−/− mice; assay: Sucrose preference test (SPT), LPS-induced anhedonia; format: in vivo, mouse; settings: P2rx7+/+ mice, subacute 4-day 50 mg/kg i.p., LPS 0.2 mg/kg i.p.
Method: The experiments were performed using the two-bottle sucrose preference paradigm. The decreased preference for sucrose vs. water in this test has been proposed to reflect impaired sensitivity towards reward and to model anhedonia. Mice were offered a choice of 2% sucrose solution or water during 12-hour nocturnal periods (starting at 19∶00). The bottles were weighed before and after each test session to monitor sucrose and water consumption. The relative position of the sucrose and water bottles were swapped every night to avoid place preferences. The baseline sucrose intake was measured under a habituation period of 3–4 days before administering the treatments, and the mean volume ingested over the last 3 training sessions was used as a baseline value. The sucrose consumption was measured for 4 consecutive nights after LPS (0.2 mg/kg i.p.) or saline administration and expressed as g/100 g body weight or as a percentage of the baseline (%).

[2] = system: BDNF level in hippocampal slices; assay: BDNF protein assay (ELISA), in vitro study in hippocampal slices; format: cell-based, mouse; settings: BBG 100 nM
Method: The P2rx7 wild type and knockout mice were anesthetized under light CO2 inhalation and decapitated. The hippocampus was dissected in ice-cold Krebs solution saturated with 95% O2 and 5% CO2, sectioned (400 µm thick slices) using a McIlwain tissue chopper and incubated in 2 ml of modified Krebs solution in the presence of 1 ml Hibernate medium, ascorbic acid (300 µM) and Na2EDTA (30 µM) for 60 min. The medium was bubbled continuously with 95% O2 and 5% CO2 and maintained at 37°C. The P2rx7 agonist, BzATP, was added to the incubation solution for 30 min, whereas BBG was applied 15 min before BzATP application. RO-256981, 6-cyano-7-nitroquinoxaline-2,3-dione (CNQX) and 3-Chloro-4-fluoro-N-[4[[2(phenylcarbonyl)hydrazino]carbonyl]benzyl] benzenesulfonamide (TCN-201) were applied for 15 min, while MCPG was administered for 30 min. The group I metabotropic glutamate receptor agonist, dihydroxyphenylglycine (DHPG), was administered for 10 min. The DHPG, MCPG, and RO-256981 dosages were chosen based on previous studies, [47], [48]. In the experiments with BzATP, Mg^2+ was omitted from the incubation solution. The hippocampal slices were collected, frozen on dry ice and stored at −70°C until further investigation. Each experimental group contained 3–4 mice.
At the time of analysis, the samples were removed from the freezer and weighed. The BDNF extraction procedure was performed in accordance with the methods of a previous study. For the BDNF assays, 2 ml lysis buffer (100 mM PIPES, pH 7, 500 mM NaCl, 0.2% Triton X-100, 0.1% NaN3, 2% BSA, 2 mM EDTA, 200 µM PMSF, 10 µg/mL aprotinin, 1 µg/mL leupeptin, and 0.5 mM sodium vanadate) was added to each sample, and the hippocampus was sonicated at power level 2 using pulses at 1 sec intervals for 10–15 sec. Subsequently, the samples were centrifuged at 16,000 × g for 30 min at 4°C. 100 µl aliquots of the resulting supernatants were removed and diluted with 400 µl of DPBS buffer (137 mM NaCl, 2.68 mM KCl, 1.47 mM KH2PO4, 8.1 mM Na2HPO4 (pH 7.35), 0.9 mM CaCl2·H2O, and 0.5 mM MgCl2·H2O). The supernatants were collected and stored at −70?C until further analysis. For the total free BDNF measurement, the samples were acid treated with 1 µl of 1 N HCl for each 50 µl of diluted samples to decrease the pH to 2.5, followed by incubation at room temperature for 15 min. The samples were neutralized with 1 µl of 1 N NaOH for each 50 µl of diluted samples. The levels of BDNF (both precursor and mature forms) expression were evaluated using an enzyme-linked immunosorbent assay (ELISA) kit and a BDNF Emax ImmunoAssay System (Promega Corporation, Madison, WI, USA), which is specific for mouse BDNF protein, according to the manufacturer’s instructions. The BDNF levels were calculated by plotting the optical density (OD) of each sample against the standard curve. A seven-point standard curve using two-fold serial dilutions in Reagent Diluent (according the manufacturer’s instructions) and a high standard of 500 pg/ml were used for the determination of BDNF levels. The assay detection limits were <15 pg/ml. Absorbance was measured at 450 nm using a Perkin-Elmer Victor 3V 1420 Multilabel Counter.

## CCOc1ccc(Nc2ccc(/C(=C3C=C/C(=[N+](/CC)Cc4cccc(S(=O)(=O)[O-])c4)C=C/3C)c3ccc(N(CC)Cc4cccc(S(=O)(=O)O)c4)cc3C)cc2)cc1 [BBG, Brilliant blue G]
[1]
  sucrose consumption one day after LPS injection: did not change
  sucrose consumption over subsequent days after LPS: significantly increased
[2]; P2rx7+/+ slices, + BzATP 100 µM, Mg2+-free, RO-256981 3 µM, MCPG 200 µM, DHPG 100 µM
  BDNF level in hippocampal slices in the presence of BzATP: 77.87 ± 4.24 pg/mL
[2]; P2rx7+/+ slices
  BDNF level in hippocampal slices: 118.22 ± 1.59 pg/mL
  increase of basal BDNF level: 656%
[2]; P2rx7−/− slices
  BDNF level in hippocampal slices: 60.31 ± 0.31 pg/mL
  increase of basal BDNF level: 272.7%
